Patent US20080219977A1, “Combinations Comprising Gemcitabine and Tyrosine Kinase Inhibitors for the Treatment of Pancreatic Cancer” (priority 2005, published 2008)
Marks after values point to notes of the source that are not given here.

Legend:
[1] = system: L3.6pl human pancreatic cancer cells; experiment: Apoptosis (TUNEL) in L3.6pl tumors; assay type: in vivo; settings: Median ± S.D.; TUNEL-positive cells in 10 random 0.159-mm^2 fields at ×100
Method: Analysis of apoptotic cells is performed by using a commercially available TUNEL kit (Promega) with the following modifications: Samples are fixed and incubated with an equilibration buffer followed by a reaction buffer (containing nucleotide mix and terminal deoxynucleotidyl transferase enzyme). Immunofluorescence microscopy is performed in a Zeiss Axioplan microscope (Carl Zeiss, Inc., Thornwood, N.Y.) equipped with an HBO 100 mercury lamp, narrow bandpass filters to individually select for green, red, and blue fluorescence (Chroma Technology Corp., Brattleboro, Vt.). Images are captured using a cooled CCD Hamamatsu Orca camera (Hamamatsu Corp., Bridgewater, N.J.) and Image Pro Analysis software (Media Cybernetics, Silver Spring, Md.). Photomontages are prepared using Adobe Photoshop software (Adobe Systems, Inc., San Jose, Calif.). […] Statistical Analysis. Body weight, tumor weight, PCNA-positive cells, mean vessel density (CD31/PECAM-1), and TUNEL-positive cells are compared using the Mann-Whitney U test. Survival analysis is computed by the Kaplan-Meier method and compared by the Log rank test.

[2] = system: L3.6pl human pancreatic cancer cells; experiment: Therapy of established L3.6pl human pancreatic carcinoma tumors growing in the pancreas of athymic nude mice (tumor weight); assay type: in vivo; settings: for effect on tumor growth (in words): L3.6pl implanted in the pancreas of nude mice, each drug 50 mg/kg; for Tumor weight (g) Median: pancreatic tumor, AEE788 50 mg/kg oral 3x/week, STI571 50 mg/kg oral daily, gemcitabine 50 mg/kg i.p. twice weekly, 4 weeks, killed day 49, n=10
Excerpt: Animals and Orthotopic Implantation of Tumor Cells. Male athymic nude mice (NCI-nu) are purchased from the Animal Production Area of the National Cancer Institute Frederick Cancer Research and Development Center (Frederick, Md.). The mice are housed and maintained under specific pathogen-free conditions. The mice are used when they are 8 to 12 weeks old. To produce pancreatic tumors, L3.6pl cells are harvested from subconfluent cultures by a brief exposure to 0.25% trypsin and 0.02% EDTA. Trypsinization is stopped with medium containing 10% FBS, and the cells are washed once in serum-free medium and resuspended in Hanks' balanced salt solution (HBSS). Only suspensions consisting of single cells with greater than 90% viability are used for injection into the pancreas of nude mice as described previously (Hwang et al. in Clin Cancer Res 2003; 9:6534-44). Treatment of Established Human Pancreatic Carcinoma Tumors Growing in the Pancreas of Athymic Nude Mice. Twenty-one days after the intra-pancreatic injection of 0.5×10^6 viable L3.6pl cells in 50 μl HBSS, the pancreatic tumors reach the size of 5-6-mm. […] All mice are treated for 4 weeks and killed on day 49 of the experiment. Necropsy Procedures and Histological Studies. […] Tumors growing in the pancreas are excised and weighed. For immunohistochemical staining procedures, one part of the tumor tissue is fixed in formalin and embedded in paraffin and the other is embedded in OCT compound (Miles, Inc., Elkhart, Ind.), rapidly frozen in liquid nitrogen, and stored at −70° C. Statistical Analysis. Body weight, tumor weight, PCNA-positive cells, mean vessel density (CD31/PECAM-1), and TUNEL-positive cells are compared using the Mann-Whitney U test. Survival analysis is computed by the Kaplan-Meier method and compared by the Log rank test.

[3] = system: EGF, VEGF, PDGF-BB, EGFR, VEGFR, and PDGFR; experiment: IHC expression level of growth factors and receptors in L3.6pl pancreatic tumors; assay type: in vivo, human; settings: IHC of pancreatic tumors from treated mice
Excerpt: (§1) Immunohistochemical (IHC) Analysis to Detect EGF, VEGF, PDGF-BB, EGFR, VEGFR, PDGFRβ, pEGFR, pVEGFR, pPDGF-R in Pancreatic Tumors. Paraffin-embedded pancreatic tumors of mice from all treatment groups are immunostained to evaluate the expression of EGF, VEGF, PDGF-BB, EGFR, VEGFR, PDGFRβ, phosphorylated (p)EGFR, pVEGFR, and pPDGFRβ. The sections are deparaffinized in xylene, dehydrated with alcohol and rehydrated in PBS. Endogenous peroxidase is blocked with 3% hydrogen peroxide in PBS. Samples are exposed to protein block (5% normal horse serum, 1% normal goat serum in PBS) and incubated overnight at 4° C. with each primary antibody at the appropriate dilution. After 1 h incubation at room temperature with peroxidase-conjugated secondary antibody, positive reaction is detected by exposure to stable 3,3′-diaminobenzidine (DAB) (Phoenix Biotechnologies, Huntsville, Ala.). Slides are counterstained with Gill's #3 hematoxylin. Sections stained for immunoperoxidase or hematoxylin and eosin are examined in a microscope equipped with a three-chip-charged coupled device (CCD) color video camera. Digital images are captured using Optimas Image Analysis software (Media Cybernetics, Md.).

PDGFRβ [4] = experiment: IHC analysis of phosphorylated PDGFRβ in L3.6pl pancreatic tumors; assay type: in vivo, human; settings: IHC of pancreatic tumors from treated mice
Excerpt: as §1, with “After 1 h incubation at room temperature with peroxidase-conjugated secondary antibody, positive reaction is detected by exposure to stable 3,3′-diaminobenzidine (DAB) (Phoenix Biotechnologies, Huntsville, Ala.).” left out

[5] = system: tumor-associated endothelial cells; experiment: Pericyte (desmin) coverage on tumor-associated endothelial cells; assay type: in vivo, nude mice; settings: desmin-positive cells in contact with CD31-positive cells
Method: Double Immunofluorescence Staining for CD31/PECAM-1 and EGFR, pEGFR, VEGFR, pVEGFR, PDGFRβ, pPDGFRβ, Pericytes (desmin-positive cells), and TUNEL. Frozen sections of pancreatic tumors are mounted on slides and fixed. Immunofluorescence for CD31 is performed using Alexa594 conjugated secondary antibody, and samples are again blocked briefly in a blocking solution (5% normal horse serum and 1% normal goat serum in PBS) as described above and incubated with antibody against human EGFR, pEGFR, VEGFR, pVEGFR, PDGFRβ, pPDGFRβ, or desmin at 4° C. overnight. After washes and blocking with blocking solution, samples are incubated with Alexa488 conjugated secondary antibody. Endothelial cells are identified by red fluorescence, and EGF-R, pEGFR, VEGFR, pVEGFR, PDGFRβ, pPDGFRβ and desmin positive cells (pericytes) are identified by green fluorescence. The presence of growth factor receptors and phosphorylated receptors on endothelial cells are detected by colocalization of red and green fluorescence, which appeared yellow. The coverage of pericytes on endothelial cells is determined by counting CD31 positive cells in direct contact with desmin-positive cells and CD31-positive cells without direct association with desmin-positive cells in five randomly selected microscopic fields.

[6] = system: tumor-associated endothelial cells; experiment: CD31/TUNEL fluorescent double labeling, apoptosis of tumor-associated endothelial cells; assay type: in vivo, nude mice; settings: Median ± S.D.; ratio of apoptotic endothelial cells to total endothelial cells
Method: Double Immunofluorescence Staining for CD31/PECAM-1 and EGFR, pEGFR, VEGFR, pVEGFR, PDGFRβ, pPDGFRβ, Pericytes (desmin-positive cells), and TUNEL. Frozen sections of pancreatic tumors are mounted on slides and fixed. Immunofluorescence for CD31 is performed using Alexa594 conjugated secondary antibody, and samples are again blocked briefly in a blocking solution (5% normal horse serum and 1% normal goat serum in PBS) as described above and incubated with antibody against human EGFR, pEGFR, VEGFR, pVEGFR, PDGFRβ, pPDGFRβ, or desmin at 4° C. overnight. After washes and blocking with blocking solution, samples are incubated with Alexa488 conjugated secondary antibody. Endothelial cells are identified by red fluorescence, and EGF-R, pEGFR, VEGFR, pVEGFR, PDGFRβ, pPDGFRβ and desmin positive cells (pericytes) are identified by green fluorescence. The presence of growth factor receptors and phosphorylated receptors on endothelial cells are detected by colocalization of red and green fluorescence, which appeared yellow. TUNEL-positive apoptotic cells are detected by localized green fluorescence within cell nuclei, and endothelial cells are identified by red fluorescence. Apoptotic endothelial cells are identified by yellow fluorescence within the nuclei.

PDGFRβ [7] = molecular target: T1, PDGFRβ (Mus musculus, UniProt P05622); experiment: Double immunofluorescence CD31/pPDGFRβ on tumor-associated endothelial cells; assay type: in vivo, nude mice; settings: double immunofluorescence with CD31
T1 construct: Frozen sections of pancreatic tumors are mounted on slides and fixed; from tissue; host or cells: tumour-associated endothelial cells in L3.6pl tumours of nude mice

[8] = system: L3.6pl human pancreatic cancer cells; experiment: Cell proliferation (PCNA) IHC in L3.6pl tumors; assay type: in vivo; settings: Median ± S.D., positive cells in 10 random 0.159-mm^2 fields at ×100
Method: (§2) IHC Determination of Proliferating Cell Nuclear Antigen (PCNA), CD31/PECAM-1 (Endothelial Cells) and TUNEL (Apoptosis). Paraffin-embedded tissues are used for IHC identification of proliferating cell nuclear antigen (PCNA). Frozen tissues used for identification of CD31/PECAM-1 are sectioned (8-10 μm), mounted on positively charged slides, and air-dried for 30 min. Frozen sections are fixed in cold acetone (5 min), in acetone/chloroform (v/v; 5 min), and again in acetone (5 min), and washed with PBS. IHC procedures are performed as described previously (Hwang et al. in Clin Cancer Res 2003; 9:6534-44). […] Statistical Analysis. Body weight, tumor weight, PCNA-positive cells, mean vessel density (CD31/PECAM-1), and TUNEL-positive cells are compared using the Mann-Whitney U test. Survival analysis is computed by the Kaplan-Meier method and compared by the Log rank test.

Endothelial cells = experiment: Mean vessel density (CD31/PECAM-1) in L3.6pl tumors; assay type: in vivo, nude mice; settings: Median ± S.D., microvessels in 10 random 0.159-mm^2 fields at ×100
Method: as §2, with “9:6534-44). Control samples exposed to a secondary antibody alone show no specific staining.” for “9:6534-44).”

[9] = Body weight of nude mice in the L3.6pl therapy study; assay type: in vivo; settings: nude mice with orthotopic L3.6pl tumors; AEE788 50 mg/kg oral 3x/week, STI571 50 mg/kg oral daily, gemcitabine 50 mg/kg i.p. twice weekly; 4 weeks, killed day 49; n=10
Method: Treatment of Established Human Pancreatic Carcinoma Tumors Growing in the Pancreas of Athymic Nude Mice. Twenty-one days after the intra-pancreatic injection of 0.5×10^6 viable L3.6pl cells in 50 μl HBSS, the pancreatic tumors reach the size of 5-6-mm. […] All mice are treated for 4 weeks and killed on day 49 of the experiment.
Necropsy Procedures and Histological Studies. In the first treatment study, the mice are killed on day 49 after tumor cell injection, weighted, and necropsied. Tumors growing in the pancreas are excised and weighed. For immunohistochemical staining procedures, one part of the tumor tissue is fixed in formalin and embedded in paraffin and the other is embedded in OCT compound (Miles, Inc., Elkhart, Ind.), rapidly frozen in liquid nitrogen, and stored at −70° C.
Statistical Analysis. Body weight, tumor weight, PCNA-positive cells, mean vessel density (CD31/PECAM-1), and TUNEL-positive cells are compared using the Mann-Whitney U test. Survival analysis is computed by the Kaplan-Meier method and compared by the Log rank test.

VEGFR [10] = molecular target: T2, VEGFR (Mus musculus, UniProt P35918); experiment: Double immunofluorescence CD31/pVEGFR on tumor-associated endothelial cells; assay type: in vivo, nude mice; settings: double immunofluorescence with CD31
T2 construct: Frozen sections of pancreatic tumors are mounted on slides and fixed; from tissue; host or cells: tumour-associated endothelial cells in L3.6pl tumours of nude mice

EGFR [11] = molecular target: T3, EGFR (Homo sapiens, UniProt P00533); experiment: IHC analysis of phosphorylated EGFR in L3.6pl pancreatic tumors; assay type: in vivo; settings: IHC of pancreatic tumors from treated mice
T3 construct: Paraffin-embedded pancreatic tumors of mice from all treatment groups are immunostained; from tissue; host or cells: L3.6pl orthotopic pancreatic tumours grown in nude mice
Excerpt: as §1, with “After 1 h incubation at room temperature with peroxidase-conjugated secondary antibody, positive reaction is detected by exposure to stable 3,3′-diaminobenzidine (DAB) (Phoenix Biotechnologies, Huntsville, Ala.).” left out

VEGFR [12] = experiment: IHC analysis of phosphorylated VEGFR in L3.6pl pancreatic tumors; assay type: in vivo, human; settings: IHC of pancreatic tumors from treated mice
Excerpt: as §1, with “After 1 h incubation at room temperature with peroxidase-conjugated secondary antibody, positive reaction is detected by exposure to stable 3,3′-diaminobenzidine (DAB) (Phoenix Biotechnologies, Huntsville, Ala.).” left out

EGFR [13] = molecular target: T4, EGFR (Mus musculus, UniProt Q01279); experiment: Double immunofluorescence CD31/pEGFR on tumor-associated endothelial cells; assay type: in vivo, nude mice; settings: double immunofluorescence with CD31
T4 construct: Frozen sections of pancreatic tumors are mounted on slides and fixed; from tissue; host or cells: tumour-associated endothelial cells in L3.6pl tumours of nude mice

[14] = listed as {6-[4-(4-ethyl-piperazin-1-ylmethyl)-phenyl]-7H-pyrrolo[2,3-d]pyrimidin-4-yl}-(1)

T3 sequence (P00533 25-1210): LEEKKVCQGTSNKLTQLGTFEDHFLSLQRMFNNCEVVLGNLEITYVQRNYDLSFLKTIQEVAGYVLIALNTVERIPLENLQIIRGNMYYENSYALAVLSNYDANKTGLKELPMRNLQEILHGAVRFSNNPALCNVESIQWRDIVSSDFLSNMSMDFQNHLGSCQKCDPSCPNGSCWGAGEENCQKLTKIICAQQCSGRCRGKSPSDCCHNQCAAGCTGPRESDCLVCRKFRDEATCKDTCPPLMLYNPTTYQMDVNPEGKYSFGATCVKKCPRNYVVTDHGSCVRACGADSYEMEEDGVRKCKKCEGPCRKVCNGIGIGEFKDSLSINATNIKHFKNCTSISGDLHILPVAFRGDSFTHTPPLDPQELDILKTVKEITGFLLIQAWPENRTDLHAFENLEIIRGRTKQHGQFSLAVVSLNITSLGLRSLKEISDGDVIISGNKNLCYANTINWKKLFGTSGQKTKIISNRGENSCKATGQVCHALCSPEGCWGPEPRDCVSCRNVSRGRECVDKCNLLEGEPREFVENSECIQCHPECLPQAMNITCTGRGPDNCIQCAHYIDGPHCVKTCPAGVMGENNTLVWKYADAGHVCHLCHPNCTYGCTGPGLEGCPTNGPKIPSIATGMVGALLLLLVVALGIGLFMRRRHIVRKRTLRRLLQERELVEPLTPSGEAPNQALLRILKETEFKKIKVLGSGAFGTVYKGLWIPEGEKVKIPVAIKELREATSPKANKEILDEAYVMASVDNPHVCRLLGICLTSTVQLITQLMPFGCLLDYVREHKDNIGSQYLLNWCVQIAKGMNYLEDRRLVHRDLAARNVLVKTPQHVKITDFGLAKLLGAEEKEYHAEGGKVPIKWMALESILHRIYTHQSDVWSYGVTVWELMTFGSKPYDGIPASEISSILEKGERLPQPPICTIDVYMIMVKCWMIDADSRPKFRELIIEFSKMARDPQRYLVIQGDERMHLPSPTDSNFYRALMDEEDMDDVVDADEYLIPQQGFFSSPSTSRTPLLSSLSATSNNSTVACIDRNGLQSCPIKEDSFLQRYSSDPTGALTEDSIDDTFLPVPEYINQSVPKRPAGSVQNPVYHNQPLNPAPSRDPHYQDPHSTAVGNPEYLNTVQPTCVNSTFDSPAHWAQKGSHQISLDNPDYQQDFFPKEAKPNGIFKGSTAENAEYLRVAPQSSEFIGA
T4 sequence (Q01279 25-1210): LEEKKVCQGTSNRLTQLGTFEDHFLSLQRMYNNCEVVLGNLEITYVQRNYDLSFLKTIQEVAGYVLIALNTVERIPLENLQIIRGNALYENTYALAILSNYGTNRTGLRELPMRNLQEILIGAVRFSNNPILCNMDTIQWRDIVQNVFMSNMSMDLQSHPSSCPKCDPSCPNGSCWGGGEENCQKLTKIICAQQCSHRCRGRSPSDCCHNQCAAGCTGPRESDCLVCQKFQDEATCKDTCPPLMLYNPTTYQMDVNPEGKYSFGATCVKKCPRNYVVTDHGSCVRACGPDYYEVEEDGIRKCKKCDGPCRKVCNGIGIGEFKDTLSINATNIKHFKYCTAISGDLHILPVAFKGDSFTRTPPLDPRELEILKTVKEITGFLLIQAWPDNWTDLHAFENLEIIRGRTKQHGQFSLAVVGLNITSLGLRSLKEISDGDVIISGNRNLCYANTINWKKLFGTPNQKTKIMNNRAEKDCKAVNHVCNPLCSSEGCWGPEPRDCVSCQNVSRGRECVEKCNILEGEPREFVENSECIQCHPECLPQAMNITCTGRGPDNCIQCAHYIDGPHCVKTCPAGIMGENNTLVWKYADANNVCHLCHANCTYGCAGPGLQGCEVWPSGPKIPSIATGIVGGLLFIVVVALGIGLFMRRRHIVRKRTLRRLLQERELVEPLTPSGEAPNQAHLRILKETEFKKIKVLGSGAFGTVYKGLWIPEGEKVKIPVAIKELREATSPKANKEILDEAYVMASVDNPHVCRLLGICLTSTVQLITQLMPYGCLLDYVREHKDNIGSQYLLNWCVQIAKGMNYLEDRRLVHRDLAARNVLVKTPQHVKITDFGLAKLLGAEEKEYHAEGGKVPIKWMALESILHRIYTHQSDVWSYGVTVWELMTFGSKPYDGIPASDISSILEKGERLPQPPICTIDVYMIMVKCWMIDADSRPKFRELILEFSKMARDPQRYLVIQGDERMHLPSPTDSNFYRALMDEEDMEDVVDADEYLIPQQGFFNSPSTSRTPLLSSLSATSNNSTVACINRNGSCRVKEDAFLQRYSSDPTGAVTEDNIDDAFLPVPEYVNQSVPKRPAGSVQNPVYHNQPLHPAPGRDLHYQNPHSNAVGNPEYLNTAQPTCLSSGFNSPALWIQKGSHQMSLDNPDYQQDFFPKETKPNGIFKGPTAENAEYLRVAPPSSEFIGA
T2 sequence (P35918 20-1345): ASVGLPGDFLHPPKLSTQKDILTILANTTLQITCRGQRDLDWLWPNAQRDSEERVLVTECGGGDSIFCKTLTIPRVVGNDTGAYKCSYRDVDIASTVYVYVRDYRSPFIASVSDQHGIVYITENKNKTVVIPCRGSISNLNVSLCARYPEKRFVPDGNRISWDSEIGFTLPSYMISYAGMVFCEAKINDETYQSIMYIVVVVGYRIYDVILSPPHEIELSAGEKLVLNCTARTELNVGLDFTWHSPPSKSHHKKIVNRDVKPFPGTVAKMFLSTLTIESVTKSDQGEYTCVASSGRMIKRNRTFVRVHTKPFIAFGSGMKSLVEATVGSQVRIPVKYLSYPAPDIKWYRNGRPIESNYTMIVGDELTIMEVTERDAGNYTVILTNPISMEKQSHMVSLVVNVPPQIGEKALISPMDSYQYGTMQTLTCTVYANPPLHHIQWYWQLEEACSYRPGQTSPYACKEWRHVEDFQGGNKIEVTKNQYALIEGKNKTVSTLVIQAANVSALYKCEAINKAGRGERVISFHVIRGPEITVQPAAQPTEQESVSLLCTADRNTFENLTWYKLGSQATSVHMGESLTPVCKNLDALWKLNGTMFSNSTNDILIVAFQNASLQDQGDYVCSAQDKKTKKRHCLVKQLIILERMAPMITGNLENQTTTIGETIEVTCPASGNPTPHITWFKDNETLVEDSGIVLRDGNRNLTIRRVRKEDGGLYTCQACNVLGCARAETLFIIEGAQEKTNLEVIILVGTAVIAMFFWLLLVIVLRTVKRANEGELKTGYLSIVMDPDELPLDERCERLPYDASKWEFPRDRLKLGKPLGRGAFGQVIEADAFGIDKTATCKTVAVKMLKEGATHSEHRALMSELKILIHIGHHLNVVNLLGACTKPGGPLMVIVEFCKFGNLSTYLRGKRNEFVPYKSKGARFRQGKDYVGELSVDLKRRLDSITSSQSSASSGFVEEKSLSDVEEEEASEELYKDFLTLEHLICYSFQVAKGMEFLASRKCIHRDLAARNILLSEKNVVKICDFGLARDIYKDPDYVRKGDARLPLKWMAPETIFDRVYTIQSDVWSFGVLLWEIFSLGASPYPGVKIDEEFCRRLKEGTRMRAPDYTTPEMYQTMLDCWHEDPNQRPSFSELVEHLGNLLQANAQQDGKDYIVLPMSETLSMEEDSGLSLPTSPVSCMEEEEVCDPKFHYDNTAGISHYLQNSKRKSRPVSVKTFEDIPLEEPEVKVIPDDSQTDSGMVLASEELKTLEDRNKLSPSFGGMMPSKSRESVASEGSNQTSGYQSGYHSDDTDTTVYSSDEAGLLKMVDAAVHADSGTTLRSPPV
T1 sequence (P05622 32-1098): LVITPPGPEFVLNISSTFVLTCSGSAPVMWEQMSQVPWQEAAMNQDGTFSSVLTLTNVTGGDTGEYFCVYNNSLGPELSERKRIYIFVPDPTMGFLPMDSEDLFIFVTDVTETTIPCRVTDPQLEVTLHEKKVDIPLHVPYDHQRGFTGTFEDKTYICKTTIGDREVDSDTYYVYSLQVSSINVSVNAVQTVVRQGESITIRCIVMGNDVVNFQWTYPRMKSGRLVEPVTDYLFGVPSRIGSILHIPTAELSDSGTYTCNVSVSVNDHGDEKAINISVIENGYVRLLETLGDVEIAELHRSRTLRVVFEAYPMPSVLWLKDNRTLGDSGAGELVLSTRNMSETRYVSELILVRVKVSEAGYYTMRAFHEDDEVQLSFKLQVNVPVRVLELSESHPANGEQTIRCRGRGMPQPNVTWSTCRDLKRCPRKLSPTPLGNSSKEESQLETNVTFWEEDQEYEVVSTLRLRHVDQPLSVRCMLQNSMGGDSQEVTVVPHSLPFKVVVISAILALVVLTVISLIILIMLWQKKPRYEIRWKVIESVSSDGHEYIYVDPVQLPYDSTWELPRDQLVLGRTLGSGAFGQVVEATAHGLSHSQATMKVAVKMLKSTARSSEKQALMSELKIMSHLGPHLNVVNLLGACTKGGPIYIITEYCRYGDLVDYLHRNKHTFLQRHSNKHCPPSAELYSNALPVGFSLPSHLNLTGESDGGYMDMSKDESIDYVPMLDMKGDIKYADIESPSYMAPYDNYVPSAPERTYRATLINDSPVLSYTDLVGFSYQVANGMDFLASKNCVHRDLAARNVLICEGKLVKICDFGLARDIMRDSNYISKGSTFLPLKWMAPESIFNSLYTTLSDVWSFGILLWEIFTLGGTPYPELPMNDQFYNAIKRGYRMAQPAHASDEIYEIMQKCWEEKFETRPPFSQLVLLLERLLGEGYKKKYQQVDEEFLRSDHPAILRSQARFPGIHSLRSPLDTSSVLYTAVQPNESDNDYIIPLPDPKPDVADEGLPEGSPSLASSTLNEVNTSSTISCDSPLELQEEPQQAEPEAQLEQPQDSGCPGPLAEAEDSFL

phosphorylation of PDGFRβ on tumor-associated endothelial cells (PDGFRβ [7])	phosphorylation of VEGFR on tumor-associated endothelial cells (VEGFR [10])	phosphorylation of EGFR in tumors (EGFR [11])	phosphorylation of EGFR in tumors (EGFR [11]; [14])	phosphorylation of EGFR on tumor-associated endothelial cells (EGFR [13])	Structure (SMILES)	Tumor cells TUNEL (number of apoptotic tumor cells) [1]	effect on tumor growth (in words) [2]	Tumor weight (g) Median [2]	expression level of EGF, VEGF, PDGF-BB, EGFR, VEGFR, and PDGFR by the tumor cells or in the stroma cells [3]	phosphorylation of PDGFRβ in tumors (PDGFRβ [4])	pericyte coverage on tumor-associated endothelial cells [5]	Endothelial cells TUNEL+ (%) [6]	Tumor cells PCNA (number of PCNA-positive cells) [8]	Tumor cells PCNA (number of PCNA-positive cells) ([8]; listed as gemcitabine)	Endothelial cells CD31 (mean vessel density) (Endothelial cells)	Endothelial cells CD31 (mean vessel density) (Endothelial cells; listed as gemcitabine)	Body weight(g) Median [9]	phosphorylation of VEGFR in tumors (VEGFR [12])	phosphorylation of VEGFR in tumors (VEGFR [12]; [14])
decreased					Cc1ccc(NC(=O)c2ccc(CN3CCN(C)CC3)cc2)cc1Nc1nccc(-c2cccnc2)n1 [STI571, N-{5-[4-(4-methyl-piperazino-methyl)-benzoylamido]-2-methylphenyl}-4-(3-pyridyl)-2-pyrimidine-amine]	6 ± 2	does not inhibit tumor growth	0.96 g	do not alter the expression level	inhibited	decreases pericyte coverage	0 ± 0%							
					Nc1ccn([C@@H]2O[C@H](CO)[C@@H](O)C2(F)F)c(=O)n1 [Gemcitabine]	8 ± 3^f	does not inhibit tumor growth	0.78 g	do not alter the expression level			1 ± 1%	305 ± 71	decreases the number of dividing PCNA-positive cells	38 ± 7	does not decrease MVD	25.7 g		
	diminished	significantly reduced	decreases phosphorylation	diminished	CCN1CCN(Cc2ccc(-c3cc4c(N[C@H](C)c5ccccc5)ncnc4[nH]3)cc2)CC1 [AEE788]	14 ± 4^f		0.33 g	do not alter the expression level			3 ± 3^e %	233 ± 54^e		25 ± 5^d		26.2 g	significantly reduced	decreases phosphorylation
